Results published in US11439707B2, “Hypocrellin derivative substituted both in a peri-position and in 2-position by amino, preparation method, and application thereof” (priority 2017, dated 2022).

Key:
[1] = absorption spectrum (maximum absorption wavelength, molar extinction coefficient); type: physicochemical
[2] = singlet oxygen efficiency test, reference rose bengal; type: physicochemical

SMILES | maximum absorption wavelength [1] [nm] | molar extinction coefficient [1] | singlet oxygen yield [2] [%]
CCNNc1c2c3c4c(c(OC)c(=O)c5c(NNCC)cc(OC)c(c6c(OC)cc(O)c(c1=O)c63)c54)C(C(C)=O)C(C)=C2 (stereo not drawn) [HB-36d] | 621 | 32,000 M^−1cm^−1 | 32
COc1c(NC2CCC(C(=O)O)CC2)c2c(=O)cc(OC)c3c4c(OC)cc(=O)c5c(O)c(NC6CCC(C(=O)O)CC6)c6c(c(c1C(C(C)=O)C(C)=C6)c23)c54 (stereo not drawn) [HB-14b] | 623 | 27,000 M^−1cm^−1 | 24
COCCOCCOC(=O)C1CCCC1Nc1c(NC2CCCC2C(=O)OCCOCCOC)c2c(=O)cc(OC)c3c4c(OC)cc(=O)c5c(O)c(OC)c6c(c(c1C=C(C)C6C(C)=O)c23)c54 (stereo not drawn) [HB-21a-PEG1] | 624 | 31,500 M^−1cm^−1 | 30
COc1c(O)c2c(=O)cc(OC)c3c4c(OC)cc(=O)c5c(NC(CO)C(=O)O)c(NC(CO)C(=O)O)c6c(c(c1C(C(C)=O)C(C)=C6)c23)c54 (stereo not drawn) [HB-23a] | 625 | 21,500 M^−1cm^−1 | 20
COc1c(O)c2c(=O)cc(OC)c3c4c(OC)cc(=O)c5c(NCC6CCC(C(=O)NCCS(=O)(=O)O)CC6)c(NCC6CCC(C(=O)NCCS(=O)(=O)O)CC6)c6c(c(c1CC(C)=C6)c23)c54 (stereo not drawn) [HC-13a-C2-SO3H] | 622 | 31,000 M^−1cm^−1 | 32
COCCOCCOCCOCCOCCOCCOCCC(=O)N1CCC(CNc2c(O)c3c(=O)cc(OC)c4c5c(OC)cc(=O)c6c(NCC7CCN(C(=O)CCOCCOCCOCCOCCOCCOCCOC)CC7)c(OC)c7c(c(c2C=C(C)C7C(C)=O)c34)c65)CC1 (stereo not drawn) [HB-31b-PEG6] | 622 | 31,000 M^−1cm^−1 | 38
COc1c(O)c2c(=O)cc(OC)c3c4c(OC)cc(=O)c5c(NCC6CCC(C(=O)OCC[N+](C)(C)C)CC6)c(NCC6CCC(C(=O)OCC[N+](C)(C)C)CC6)c6c(c(c1CC(C)=C6)c23)c54 (stereo not drawn) [HC-13a-C2-N^+] | 622 | 30,500 M^−1cm^−1 | 30
COc1c2c3c4c(c(NC(CCC(=O)O)C(=O)O)c(=O)c5c(O)cc(OC)c(c6c(OC)cc(NC(CCC(=O)O)C(=O)O)c(c1=O)c63)c54)C=C(C)C2C(C)=O (stereo not drawn) [HB-28d] | 620 | 20,500 M^−1cm^−1 | 18
COCCOCCC(=O)OC1CCC(Nc2c(NC3CCC(OC(=O)CCOCCOC)CC3)c3c(=O)cc(OC)c4c5c(OC)cc(=O)c6c(O)c(OC)c7c(c(c2C=C(C)C7C(C)=O)c34)c65)CC1 (stereo not drawn) [HB-17a-PEG1] | 622 | 30,500 M^−1cm^−1 | 30
COc1c(O)c2c(=O)cc(OC)c3c4c(OC)cc(=O)c5c(NC6CCCC6C(=O)O)c(NC6CCCC6C(=O)O)c6c(c(c1C(C(C)=O)C(C)=C6)c23)c54 (stereo not drawn) [HB-21a] | 620 | 23,500 M^−1cm^−1 | 20
COc1c(NCCCC(=O)O)c2c(=O)cc(OC)c3c4c(OC)cc(=O)c5c(O)c(NCCCC(=O)O)c6c(c(c1C(C(C)=O)C(C)=C6)c23)c54 (stereo not drawn) [HB-8b] | 618 | 28,500 M^−1cm^−1 | 26
COc1c(NCCOC(=O)N2CC(=O)NC(=O)C2)c2c(=O)cc(OC)c3c4c(OC)cc(=O)c5c(O)c(NCCOC(=O)N6CC(=O)NC(=O)C6)c6c(c(c1C(C(C)=O)C(C)=C6)c23)c54 (stereo not drawn) [HB-40b] | 624 | 31,500 M^−1cm^−1 | 34
COc1c(NCCC2CCC(O)CC2)c2c(=O)cc(OC)c3c4c(OC)cc(=O)c5c(O)c(NCCC6CCC(O)CC6)c6c(c(c1C(C(C)=O)C(C)=C6)c23)c54 (stereo not drawn) [HB-18b] | 621 | 24,500 M^−1cm^−1 | 21
COCCOCCNC(=O)CCCNc1c(NCCCC(=O)NCCOCCOC)c2c(=O)cc(OC)c3c4c(OC)cc(=O)c5c(O)c(OC)c6c(c(c1C=C(C)C6)c23)c54 [HC-8a-NH-PEG1] | 621 | 30,500 M^−1cm^−1 | 30
COCCOCCOCCOCCOCCOCCOC(=O)CCCNc1c2c3c4c(c(OC)c(=O)c5c(NCCCC(=O)OCCOCCOCCOCCOCCOCCOC)cc(OC)c(c6c(OC)cc(O)c(c1=O)c63)c54)CC(C)=C2 [HC-8d-PEG6] | 624 | 31,500 M^−1cm^−1 | 32
COc1c2c3c4c(c(NCC5CCC(C(=O)NCCCCCC[P+](c6ccccc6)(c6ccccc6)c6ccccc6)CC5)c(=O)c5c(NCC6CCC(C(=O)NCCCCCC[P+](c7ccccc7)(c7ccccc7)c7ccccc7)CC6)cc(OC)c(c6c(OC)cc(O)c(c1=O)c63)c54)C=C(C)C2 (stereo not drawn) [HC-13c-NH—C6-PPh3+] | 632 | 33,500 M^−1cm^−1 | 38

SMILES | maximum absorption wavelength [1] [nm] | molar extinction coefficient [1] | singlet oxygen yield [2] [%]
COc1c2c3c4c(c(NCCCC(=O)O)c(=O)c5c(O)cc(OC)c(c6c(OC)cc(NCCCC(=O)O)c(c1=O)c63)c54)C=C(C)C2 [HC-8d] | 623 | 27,000 M^−1cm^−1 | 26
COc1c(O)c2c(=O)cc(OC)c3c4c(OC)cc(=O)c5c(NCCOCCO)c(NCCOCCO)c6c(c(c1CC(C)=C6)c23)c54 [HC-1a] | 628 | 28,000 M^−1cm^−1 | 36
COCCOCCOCCOCCOCCOCCOC(=O)C1CCCCC1Nc1c(O)c2c(=O)cc(OC)c3c4c(OC)cc(=O)c5c(NC6CCCCC6C(=O)OCCOCCOCCOCCOCCOCCOC)c(OC)c6c(c(c1C=C(C)C6C(C)=O)c23)c54 (stereo not drawn) [HB-16b-PEG6] | 624 | 30,500 M^−1cm^−1 | 32
COc1c(NCCO)c2c(=O)cc(OC)c3c4c(OC)cc(=O)c5c(O)c(NCCO)c6c(c(c1CC(C)=C6)c23)c54 [HC-2b] | 624 | 27.500 M⁻¹ cm⁻¹ | 33
COCCOC(=O)C1CCCCC1Nc1c(NC2CCCCC2C(=O)OCCOC)c2c(=O)cc(OC)c3c4c(OC)cc(=O)c5c(O)c(OC)c6c(c(c1C=C(C)C6C(C)=O)c23)c54 (stereo not drawn) [HB-16a-PEG1] | 624 | 30,500 M^−1cm^−1 | 32
COc1c2c3c4c(c(NCCCS(=O)(=O)O)c(=O)c5c(NCS(=O)(=O)O)cc(OC)c(c6c(OC)cc(O)c(c1=O)c63)c54)C=C(C)C2 [HC-45c] | 627 | 22,000 M^−1cm^−1 | 21
COCCOCCOCCOCCOCCOCCOCCN1C(=O)CN(C(=O)OCCNc2c(O)c3c(=O)cc(OC)c4c5c(OC)cc(=O)c6c(NCCOC(=O)N7CC(=O)N(CCOCCOCCOCCOCCOCCOCCOC)C(=O)C7)c(OC)c7c(c(c2C=C(C)C7C(C)=O)c34)c65)CC1=O (stereo not drawn) [HB-40b-PEG6] | 624 | 31,000 M^−1cm^−1 | 34
COc1c(O)c2c(=O)cc(OC)c3c4c(OC)cc(=O)c5c(NC(CCC(=O)O)C(=O)O)c(NC(CCC(=O)O)C(=O)O)c6c(c(c1C(C(C)=O)C(C)=C6)c23)c54 (stereo not drawn) [HB-28a] | 621 | 20,500 M^−1cm^−1 | 18
COc1c2c3c4c(c(NC(CO)C(=O)O)c(=O)c5c(O)cc(OC)c(c6c(OC)cc(NC(CO)C(=O)O)c(c1=O)c63)c54)C=C(C)C2C(C)=O (stereo not drawn) [HB-23d] | 621 | 21,500 M^−1cm^−1 | 18
COCCOCCNc1c(NCCCC(=O)O)c2c3c4c(c(OC)c(O)c5c(=O)cc(OC)c(c6c(OC)cc(=O)c1c63)c54)C(C(C)=O)C(C)=C2 (stereo not drawn) [HB-47a-PEG1] | 622 | 30,500 M^−1cm^−1 | 30
COCCOCCOCCOCCOCCOCCOC(=O)CCCNc1c(O)c2c(=O)cc(OC)c3c4c(OC)cc(=O)c5c(NCCCC(=O)OCCOCCOCCOCCOCCOCCOC)c(OC)c6c(c(c1C=C(C)C6C(C)=O)c23)c54 (stereo not drawn) [HB-8b-PEG6] | 622 | 30,000 M^−1cm^−1 | 30
COc1c2c3c4c(c(NCCCCCCS(=O)(=O)O)c(=O)c5c(NCCCCCCS(=O)(=O)O)cc(OC)c(c6c(OC)cc(O)c(c1=O)c63)c54)C=C(C)C2C(C)=O (stereo not drawn) [HB-11c-C6-SO3H] | 626 | 31,500 M^−1cm^−1 | 38
COc1c2c3c4c(c(NC(CC(N)=O)C(=O)O)c(=O)c5c(NC(CC(N)=O)C(=O)O)cc(OC)c(c6c(OC)cc(O)c(c1=O)c63)c54)C=C(C)C2C(C)=O (stereo not drawn) [HB-26c] | 614 | 21,500 M^−1cm^−1 | 21
COCCOCCOCCOCCOCCOCCOCCC(=O)OC1CCC(Nc2c3c4c5c(c(OC)c(=O)c6c(NC7CCC(OC(=O)CCOCCOCCOCCOCCOCCOCCOC)C7)cc(OC)c(c7c(OC)cc(O)c(c2=O)c74)c65)C(C(C)=O)C(C)=C3)C1 (stereo not drawn) [HB-20d-PEG6] | 630 | 30,500 M^−1cm^−1 | 32
COc1c2c3c4c(c(NCC5CCC(C(=O)OCCCCCC[P+](c6ccccc6)(c6ccccc6)c6ccccc6)CC5)c(=O)c5c(NCC6CCC(C(=O)OCCCCCC[P+](c7ccccc7)(c7ccccc7)c7ccccc7)CC6)cc(OC)c(c6c(OC)cc(O)c(c1=O)c63)c54)C=C(C)C2 (stereo not drawn) [HC-30c-C6-PPh3^+] | 632 | 33,500 M^−1cm^−1 | 40
COCCOCCOCCOCCOCCOCCOCCC(=O)N1CCC(CNc2c3c4c5c(c(OC)c(=O)c6c(O)cc(OC)c(c7c(OC)cc(NCC8CCN(C(=O)CCOCCOCCOCCOCCOCCOCCOC)CC8)c(c2=O)c74)c65)C(C(C)=O)C(C)=C3)CC1 (stereo not drawn) [HB-31c-PEG6] | 632 | 33,500 M^−1cm^−1 | 40
